Reference: patent US20220040255A1, “CHEMOTHERAPEUTIC REMODELING OF THE GUT MICROBIOME” (THE SCRIPPS RESEARCH INSTITUTE, priority 2018, published 2022)

Tested on: gut microbiota from cecum of LDLr−/− mice
Assay: in vitro en masse screening assay (cecum culture, 16S rRNA sequencing)
Assay type: cell-based
Description: We have established the following in vitro compound screening protocol for en masse gut microbiome remodeling. We obtain fresh gut microbiome content from LDLr^-/- mice conditioned for at least two weeks on WD by surgically removing cecum under anaerobic conditions. These samples are then mixed with growth media, distributed in 96-well plates, and incubated overnight in the presence of the test peptides. The activity and selectivity of each peptide for remodeling the gut microbiota community was assessed en masse by 16S rRNA sequencing of each well. A number of challenges had to be addressed in developing this protocol, including inoculum handling, choice of growth media, assay duration, etc. Our current assay culture condition maintains 50 bacterial genera (overnight culture), which is fairly representative of the 67 genera found in the uncultured community (Table 2). We used a distance scoring algorithm for a more refined compound selection, in which peptides that remodel the microbiota community most completely from the dysfunctional state (WD fed) toward the functional state (CHD fed) are scored higher. Briefly, we first eliminate cyclic D,L-α-peptides that have broad-spectrum antibacterial activity (inhibit >95% of growth of ≥25% of species in the community). The remaining compounds are then ranked based on how well they suppressed the bacterial species that grew in abundance in WD-fed mice. […] Among these, 40 genera decreased while 14 genera increased in abundance by WD feeding. Within the increased 11 genera, there were 19 bacterial species that were also present in our in vitro culture system. Accordingly, compounds were scored highly when they reduced the levels of 19 bacterial species (lowest summed differences in relative abundance) that were increased by WD feeding to be more similar to their levels in a CHD-fed microbiome (see Table 3 for peptide ranking). Based on these analyses, we chose two peptides for further in vivo validation and efficacy studies: the cationic peptide 1, […] NO:1), and the neutral peptide 11, […] NO:11), which ranked high within their respective peptide clusters. In vitro cecum culture and peptide screening. We screened a number of parameters to optimize the in vitro culture condition for maximal bacterial diversity in liquid culture, including a survey of several different growth media, dilution factors for plate inoculation, and incubation times; further details of the development of this in vitro screen will be reported elsewhere. Female LDLr^-/- mice (8-10 weeks of age) were fed a WD for two weeks. Cecum harvest and all assay steps were performed under anaerobic conditions (Coy Laboratory anaerobic chamber). Cecum contents from three mice were pooled for the assay to provide enough material and to minimize the individual variation in gut microbiome. Cecum contents were suspended in PBS (1.5 ml PBS per 100 mg of cecum content). The mixture was vortexed for 5 min and the supernatant was transferred to a new tube. The cecum content mixture was further diluted in Chopped Meat Carbohydrate Broth (BD 297307) for in vitro peptide screening. […] The concentration of peptide stock in DMSO was calculated based on A280 measurement. For each peptide, an initial 20 mM stock was made in DMSO and diluted to 1 mM in 10% sucrose. From that, a 0.64 mM peptide dilution in 10% sucrose was prepared, and each peptide was further diluted into the assay for peptide screening at two concentrations (64 μM and 16 μM). Bacterial DNA was harvested after 24-hour peptide treatment and isolated with Microbial DNA isolation kit (Mo Bio) following the manufacturer's instructions. 16S rRNA gene sequencing and processing. PCR amplicons of the V3-V4 16S rRNA region were amplified and sequenced using an Illumina MiSeq platform. […]

[1] = ranking in remodeling WD gut microbiota toward CHD microbiota composition

Row | Compound | ranked distance to chow [1] | further results
1 | c[YlYlYkSo] | 13 | –
2 | c[WwLlHsKk | 3 | –
3 | c[WwQoHdKt] | 15 | –
4 | c[wLlEeKkN] | 21 | –
5 | c[wLhLwKrK] | 11 | –
6 | c[wWwKsKsK] | 12 | –
7 | c[lLwHoK] | 7 | –
8 | c[lFlAlKhK] | 8 | –
9 | c[wLwSeQeO] [wLwSeQsO] | 16 | –
10 | c[wLeLwKsK] | 9 | –
11 | c[WlWlWkSk] | 1 | –
12 | c[YwElYsKq] | 17 | –
13 | c[WlLlKkKs] [WllLlKkKs] | 20 | –
14 | c[fWwYqHhQ] | 25 | –
15 | c[LlWhQk] | 5 | –
16 | c[wLlWkKkS] | 10 | –
17 | c[FwHlYoHq] | 18 | –
18 | c[YlWyKhAe] | 23 | –
19 | c[wLwSeQhK] | 22 | –
20 | O=C(N[C@H](CO)[C@H](O)c1ccc([N+](=O)[O-])cc1)C(Cl)Cl [Chm, chloramphenicol, reference compound] | – | ranked distance to chow (Chm- 2 μg): 4; ranked distance to chow (Chm- 8 μg): 24
21 | c[wFkSkSkS] | 19 | –
22 | c[wLfKwKkK] | 6 | –
